What follows are compounds tested against T1, human SLC6A19 and TMEM27 (Homo sapiens, UniProt Q695T7) (assay: Radiolabelled (3H) leucine uptake in CHO cells with doxycycline-inducible expression of human SLC6A19 and TMEM27 (Example B-1)). Conditions: CHO cells with doxycycline-inducible expression of human SLC6A19 and TMEM27, read-out: SLC6A19_Radioligand Uptake Assay IC50.
T1 construct: expressed in transfected cells
T1 sequence (Q695T7 1-634): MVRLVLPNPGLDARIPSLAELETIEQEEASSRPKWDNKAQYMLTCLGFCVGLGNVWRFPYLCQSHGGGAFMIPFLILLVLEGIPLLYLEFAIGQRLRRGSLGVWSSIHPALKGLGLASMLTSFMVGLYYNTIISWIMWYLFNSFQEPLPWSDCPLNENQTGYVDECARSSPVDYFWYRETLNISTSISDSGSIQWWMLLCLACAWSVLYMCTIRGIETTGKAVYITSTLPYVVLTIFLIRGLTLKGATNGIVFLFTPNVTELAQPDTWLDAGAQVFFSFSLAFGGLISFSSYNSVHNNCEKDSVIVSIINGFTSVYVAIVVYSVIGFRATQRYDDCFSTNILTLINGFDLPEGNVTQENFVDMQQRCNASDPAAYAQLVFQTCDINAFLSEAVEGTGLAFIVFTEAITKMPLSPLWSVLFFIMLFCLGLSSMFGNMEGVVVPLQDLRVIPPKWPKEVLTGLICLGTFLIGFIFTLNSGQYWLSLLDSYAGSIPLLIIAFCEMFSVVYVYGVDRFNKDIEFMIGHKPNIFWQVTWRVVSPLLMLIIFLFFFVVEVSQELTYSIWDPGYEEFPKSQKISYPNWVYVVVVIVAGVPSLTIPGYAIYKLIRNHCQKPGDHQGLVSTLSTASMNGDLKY
T1 sequence (Q9HBJ8 15-222 partner): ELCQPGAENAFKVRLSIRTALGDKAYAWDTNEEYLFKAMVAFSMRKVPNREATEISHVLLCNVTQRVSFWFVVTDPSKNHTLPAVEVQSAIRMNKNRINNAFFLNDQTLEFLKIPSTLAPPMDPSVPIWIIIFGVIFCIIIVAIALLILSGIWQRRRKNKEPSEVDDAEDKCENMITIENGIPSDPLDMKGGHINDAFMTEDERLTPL
Format: cell-based
Outline: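 CHO cells were induced with doxycycline for 18 h at 37 °C, washed in HBSS, then exposed to compounds for 1 h: 8-point, 3-fold dilutions in duplicate, 0.5% DMSO final. Uptake measured by scintillation counting after 2 h shaking. Activity normalized with positive control as 0% and DMSO as 100%.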

Point of comparison: CO[C@H](C)C(=O)NCc1cc2cc(Cl)c(OCc3cscn3)cc2[nH]1 [Compound 292, (R)-N-((5-chloro-6-(thiazol-4-ylmethoxy)-1H-indol-2-yl)methyl)-2-methoxypropanamide], IC50 666 nM. Against it:
- O=C(NCc1cc2cc(F)c(OCc3ccon3)cc2[nH]1)C1CC1 [Compound 140, N-((5-fluoro-6-(isoxazol-3-ylmethoxy)-1H-indol-2-yl)methyl)cyclopropanecarboxamide] — 4.5-fold lower, 148 nM
- Cc1cc(COc2cc3[nH]c(CNC(=O)[C@@H]4CCCO4)cc3cc2Cl)on1 [Compound 312, (S)-N-((5-chloro-6-((3-methylisoxazol-5-yl)methoxy)-1H-indol-2-yl)methyl)tetrahydrofuran-2-carboxamide] — 2.1-fold lower, 317 nM
- O=C(CN1CCC1)NCc1cc2cc(Cl)c(OCc3cscn3)cc2[nH]1 [Compound 512, 2-(azetidin-1-yl)-N-((5-chloro-6-(thiazol-4-ylmethoxy)-1H-indol-2-yl)methyl)acetamide] — 10-fold higher, 6780 nM
- CC1(C(=O)NCc2cc3cc(F)c(OCc4cscn4)cc3[nH]2)CCC1 [Compound 507, N-((5-fluoro-6-(thiazol-4-ylmethoxy)-1H-indol-2-yl)methyl)-1-methylcyclobutane-1-carboxamide] — 2-fold lower, 327 nM
- O=C(NCc1cc2cc(F)c(OCc3ccon3)cc2[nH]1)N1CCCCC1 [Compound 88, N-((5-fluoro-6-(isoxazol-3-ylmethoxy)-1H-indol-2-yl)methyl)piperidine-1-carboxamide] — within 1.5-fold, 477 nM
- O=C(NCc1cc2cc(Cl)c(OCc3ccon3)cc2[nH]1)C1CCC1 [Compound 488, N-((5-chloro-6-(isoxazol-3-ylmethoxy)-1H-indol-2-yl)methyl)cyclobutanecarboxamide] — 4.1-fold lower, 161 nM
- CC1(C(=O)NCc2cc3ccc(OCc4ccon4)c(F)c3[nH]2)CC1 [Compound 201, N-((7-fluoro-6-(isoxazol-3-ylmethoxy)-1H-indol-2-yl)methyl)-1-methylcyclopropane-1-carboxamide] — 7.6-fold higher, 5070 nM
- Cc1cc(COc2cc3[nH]c(CNC(=O)C4(C#N)COC4)cc3cc2Cl)on1 [Compound 275, N-((5-chloro-6-((3-methylisoxazol-5-yl)methoxy)-1H-indol-2-yl)methyl)-3-cyanooxetane-3-carboxamide] — 1.9-fold lower, 350 nM
- Cc1cc(COc2cc3[nH]c(CNC(=O)COC(F)F)cc3cc2Cl)on1 [Compound 294, N-((5-chloro-6-((3-methylisoxazol-5-yl)methoxy)-1H-indol-2-yl)methyl)-2-(difluoromethoxy)acetamide] — 4.9-fold lower, 135 nM
- CC1(C(=O)NCc2cc3cc(CC#N)c(OCc4ccon4)cc3[nH]2)CC1 [Compound 644, N-((5-(cyanomethyl)-6-(isoxazol-3-ylmethoxy)-1H-indol-2-yl)methyl)-1-methylcyclopropane-1-carboxamide] — within 1.5-fold, 583 nM
- Cc1cc(COc2cc3[nH]c(CNC(=O)[C@H]4CCCO4)cc3cc2Cl)on1 [Compound 311, (R)-N-((5-chloro-6-((3-methylisoxazol-5-yl)methoxy)-1H-indol-2-yl)methyl)tetrahydrofuran-2-carboxamide] — 5.2-fold lower, 129 nM
- Cc1cc(C(C)Cc2ccc3cc(CNC(=O)C4(C)CC4)[nH]c3c2)no1 (stereo not shown) [Compound 195, 1-methyl-N-((6-(2-(5-methylisoxazol-3-yl)propyl)-1H-indol-2-yl)methyl)cyclopropanecarboxamide] — 22-fold higher, 14800 nM
- O=C(NCc1cc2cc(Cl)c(OCc3cscn3)cc2[nH]1)[C@H]1C[C@@H]1F [Compound 544, (1R,2S)-N-((5-chloro-6-(thiazol-4-ylmethoxy)-1H-indol-2-yl)methyl)-2-fluorocyclopropane-1-carboxamide] — 5.6-fold lower, 119 nM
- O=C(NCc1cc2cc(Cl)c(OCc3cscn3)cc2[nH]1)[C@H]1C[C@H]1F [Compound 541, (1R,2R)-N-((5-chloro-6-(thiazol-4-ylmethoxy)-1H-indol-2-yl)methyl)-2-fluorocyclopropane-1-carboxamide] — 4.7-fold lower, 141 nM
- O=C(NCc1cc2cc(Cl)c(OCc3cscn3)cc2[nH]1)N1CC(CO)C1 [Compound 368, N-((5-chloro-6-(thiazol-4-ylmethoxy)-1H-indol-2-yl)methyl)-3-(hydroxymethyl)azetidine-1-carboxamide] — higher, > 5480 nM
- CC1(C(=O)NCc2cc3c(F)c(Cl)c(OCc4ccon4)cc3[nH]2)CC1 [Compound 15, N-((5-chloro-4-fluoro-6-(isoxazol-3-ylmethoxy)-1H-indol-2-yl)methyl)-1-methylcyclopropane-1-carboxamide] — 1.8-fold lower, 363 nM
- Cc1cc(COc2cc3[nH]c(CNC(=O)N4CCCC4C(F)F)cc3cc2Cl)on1 (racemic) [Compound 375, (S)-N-((5-chloro-6-((3-methylisoxazol-5-yl)methoxy)-1H-indol-2-yl)methyl)-2-(difluoromethyl)pyrrolidine-1-carboxamide and (R)-N-((5-chloro-6-((3-methylisoxazol-5-yl)methoxy)-1H-indol-2-yl)methyl)-2-(difluoromethyl)pyrrolidine-1-carboxamide] — within 1.5-fold, 948 nM
- CC1(C(=O)NCc2cc3cc(Cl)c(OCCC4CCCO4)cc3[nH]2)CC1 (racemic) [Compound 397, (S)-N-((5-chloro-6-(2-(tetrahydrofuran-2-yl)ethoxy)-1H-indol-2-yl)methyl)-1-methylcyclopropane-1-carboxamide and (R)-N-((5-chloro-6-(2-(tetrahydrofuran-2-yl)ethoxy)-1H-indol-2-yl)methyl)-1-methylcyclopropane-1-carboxamide] — within 1.5-fold, 492 nM
- Cc1c(CNC(=O)N2CCC2)[nH]c2cc(OCc3cscn3)c(Cl)cc12 [Compound 473, N-((5-chloro-3-methyl-6-(thiazol-4-ylmethoxy)-1H-indol-2-yl)methyl)azetidine-1-carboxamide] — 2.3-fold lower, 293 nM
- CC1(C(=O)NCc2cc3cc(OC(F)(F)F)c(OCc4cscn4)cc3[nH]2)CC1 [Compound 434, 1-methyl-N-((6-(thiazol-4-ylmethoxy)-5-(trifluoromethoxy)-1H-indol-2-yl)methyl)cyclopropane-1-carboxamide] — 2.5-fold lower, 263 nM
- CC[C@@H](O)C(=O)NCc1cc2cc(Cl)c(OCc3cc(C)no3)cc2[nH]1 [Compound 241, (R)-N-((5-chloro-6-((3-methylisoxazol-5-yl)methoxy)-1H-indol-2-yl)methyl)-2-hydroxybutanamide] — 1.5-fold higher, 1020 nM
- Cc1cc(COc2cc3[nH]c(CNC(=O)CC4CC4)cc3cc2Cl)on1 [Compound 449, N-((5-chloro-6-((3-methylisoxazol-5-yl)methoxy)-1H-indol-2-yl)methyl)-2-cyclopropylacetamide] — 3.6-fold lower, 187 nM
- Cc1cc(COc2cc3[nH]c(CNC(=O)C[C@@H]4CCOC4)cc3cc2Cl)on1 [Compound 289, (S)-N-((5-chloro-6-((3-methylisoxazol-5-yl)methoxy)-1H-indol-2-yl)methyl)-2-(tetrahydrofuran-3-yl)acetamide] — 3-fold higher, 2020 nM
- COC(=O)NCc1cc2cc(Cl)c(OCc3cc(C)no3)cc2[nH]1 [Compound 625, methyl ((5-chloro-6-((3-methylisoxazol-5-yl)methoxy)-1H-indol-2-yl)methyl)carbamate] — 7.4-fold lower, 90.2 nM
- CCC(=O)NCc1cc2c(F)cc(OCc3ccon3)cc2[nH]1 [Compound 517, N-((4-fluoro-6-(isoxazol-3-ylmethoxy)-1H-indol-2-yl)methyl)propionamide] — 2.7-fold lower, 243 nM
- CC(=O)NCc1cc2cc(Cl)c(OCCOC3CCC3)cc2[nH]1 [Compound 456, N-((5-chloro-6-(2-cyclobutoxyethoxy)-1H-indol-2-yl)methyl)acetamide] — 6.4-fold higher, 4260 nM
- CO[C@H]1C[C@H](Oc2cc3[nH]c(CNC(C)=O)cc3cc2Cl)C1 [Compound 462, N-((5-chloro-6-((trans)-3-methoxycyclobutoxy)-1H-indol-2-yl)methyl)acetamide] — 3-fold higher, 2000 nM
- Cc1cc(COc2cc3[nH]c(CNC(=O)C4(C)CC4)cc3cc2Cl)ns1 [Compound 399, N-((5-chloro-6-((5-methylisothiazol-3-yl)methoxy)-1H-indol-2-yl)methyl)-1-methylcyclopropane-1-carboxamide] — 1.6-fold lower, 429 nM
- Cc1cc(COc2cc3[nH]c(CNC(=O)N4CC(F)C4)cc3cc2Cl)on1 [Compound 372, N-((5-chloro-6-((3-methylisoxazol-5-yl)methoxy)-1H-indol-2-yl)methyl)-3-fluoroazetidine-1-carboxamide] — 2.6-fold lower, 253 nM
- Cc1cc(COc2cc3[nH]c(CNC(=O)C4CCO4)cc3cc2Cl)on1 (stereo not shown) [Compound 278, N-((5-chloro-6-((3-methylisoxazol-5-yl)methoxy)-1H-indol-2-yl)methyl)oxetane-2-carboxamide] — 6.2-fold lower, 108 nM

Source: US20240199546A1, “INHIBITORS OF SOLUTE CARRIER FAMILY 6A MEMBER 19 (SLC6A19) AND METHODS OF USE THEREOF” (Maze Therapeutics, Inc., priority 2022, published 2024)
